According to publication PMC10899790, “A bromodomain-independent mechanism of gene regulation by the BET inhibitor JQ1: direct activation of nuclear receptor PXR” (Nucleic Acids Research, 2023):
“Also recorded” adds a separate entry of the source.

How the values were obtained:
PGK promoter = PGK promoter firefly luciferase reporter; type: cell-based, human; conditions: HepG2, 24 h
CYP3A4 = conditions: cited from earlier work
HepG2 cells = assay: Cytotoxicity assay (CellTiter-Glo); type: cell-based, human; conditions: HepG2, 24 h
Procedure: HepG2 cells (1 × 10^4/well in 25 μl phenol red-free DMEM supplemented with 5% charcoal/dextran-treated FBS) were plated and treated as in the transactivation assays. After 24 h compound treatment, the CellTiter-Glo Luminescent Cell Viability Assay (Promega) and an EnVision microplate reader were used to assess cytotoxicity. DMSO wells with cells served as negative controls, and wells without cells served as positive controls. The averaged luminescence signal of the wells without cells was subtracted from the luminescence signals of all other wells, and the background subtracted values were normalized to DMSO-treated wells containing cells to obtain percent cell viability.

PXR = assay: RNA induction in HepaRG: PXR RNA (RT-qPCR); type: cell-based, human; conditions: differentiated HepaRG, 24 h; FC relative to DMSO
Procedure: Experiments with HepaRG cells were conducted similarly to previously described ([45]), with modifications. HepaRG cells were seeded in collagen-coated 24-well plates at 5 × 10^5 cells/well in HCM. Cells were differentiated for two weeks with HCM containing 2% DMSO. The cells were then treated with the respective chemicals for 24 h in HCM. The final DMSO concentration for the treatment was 0.5%. Total RNA was isolated from cells with Maxwell 16 LEV SimplyRNA Tissue Kits (Promega), and cDNA was generated from 250 ng of RNA with the SuperScript VILO cDNA Synthesis Kit (Thermo Fisher Scientific). Quantitative real-time polymerase chain reaction (RT-qPCR) was conducted with 2 μl of cDNA using TaqMan Fast Advanced Master Mix (Applied Biosystems) in an Applied Biosystems 7500 Fast Real-Time PCR System. TaqMan gene expression assays specific for CYP3A4 (Hs00604506_m1), PXR (Hs01114267_m1), MYC (Hs00153408_m1) and RNA18S (Hs03928990_g1) were purchased from Thermo Fisher Scientific. Fold induction values were calculated according to the 2^−ΔΔCt method, where ΔCt represents the differences in cycle threshold numbers between the target gene and reference gene and ΔΔCt represents the relative change in these differences between the control and treatment groups ([46]). RNA18S was used as the reference gene for relative quantification of all other genes.

human PXR = molecular target: T1, human PXR (Homo sapiens, UniProt O75469); assay: PXR transactivation assay (CYP3A4-luciferase reporter)
T1 sequence (O75469 1-434): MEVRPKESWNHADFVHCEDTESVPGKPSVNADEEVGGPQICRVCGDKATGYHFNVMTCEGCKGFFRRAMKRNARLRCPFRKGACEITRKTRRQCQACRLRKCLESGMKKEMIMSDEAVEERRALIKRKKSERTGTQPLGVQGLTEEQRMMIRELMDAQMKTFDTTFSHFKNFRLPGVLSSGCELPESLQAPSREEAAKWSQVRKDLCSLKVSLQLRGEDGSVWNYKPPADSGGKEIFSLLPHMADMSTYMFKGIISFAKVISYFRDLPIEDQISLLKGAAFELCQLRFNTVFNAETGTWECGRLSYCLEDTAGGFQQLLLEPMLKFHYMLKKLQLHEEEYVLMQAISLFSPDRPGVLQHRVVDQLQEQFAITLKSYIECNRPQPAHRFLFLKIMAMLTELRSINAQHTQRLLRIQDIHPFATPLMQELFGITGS
Procedure: Assays were performed similarly as previously described with minor modifications ([30–32]). HepG2 cells (7.5 × 10^5/well) were plated in six-well tissue culture-treated plates. The following day, cells were co-transfected with pGL3-CYP3A4-luc (2 μg/well), pRL-CMV (200 ng/well) and 100 ng/well of either empty vector (pcDNA3), pcDNA3-FLAG-PXR, pCMV6-mPXR or pGL4.53-PGK-PXR using Lipofectamine 3000 (Thermo Fisher Scientific). Twenty-four hours after transfection, cells were trypsinized and suspended in phenol red-free DMEM (Thermo Fisher Scientific) supplemented with 5% charcoal/dextran-treated FBS (HyClone), and 1 × 10^4 cells/well in 25 μl media were added to white 384-well plates. […] After 24 h, the Dual-Glo Luciferase Assay System (Promega) and EnVision microplate reader (PerkinElmer) were used to measure firefly and Renilla luciferase activities. CMV-driven Renilla luciferase was used as an indicator of general transcriptional modulation by the test compounds and is plotted as fold change (FC) relative to DMSO controls. Assays utilizing pGL4.54[luc2/TK], pGL4.53[luc2/PGK], or pGL4.13[luc2/SV40] were similarly performed and normalized. For the PXR-responsive CYP3A4-luciferase reporter, the measured relative light units (RLU) were normalized for each well using equation (1),
RLUT0901317 represents the measured RLU from wells containing 1 μM T0901317. For mPXR assays, 5 μM PCN was used in place of T0901317.

PXR LBD = molecular target: T2, PXR LBD (Homo sapiens, UniProt O75469); assay: TR-FRET PXR LBD ligand binding assay; conditions: TR-FRET competition with BODIPY FL vindoline
T2 construct: GST-PXR LBD protein (cat. # PV4841) were purchased from Thermo Fisher Scientific; purchased Thermo Fisher Scientific PV4841
T2 sequence (O75469 146-433 limits assumed): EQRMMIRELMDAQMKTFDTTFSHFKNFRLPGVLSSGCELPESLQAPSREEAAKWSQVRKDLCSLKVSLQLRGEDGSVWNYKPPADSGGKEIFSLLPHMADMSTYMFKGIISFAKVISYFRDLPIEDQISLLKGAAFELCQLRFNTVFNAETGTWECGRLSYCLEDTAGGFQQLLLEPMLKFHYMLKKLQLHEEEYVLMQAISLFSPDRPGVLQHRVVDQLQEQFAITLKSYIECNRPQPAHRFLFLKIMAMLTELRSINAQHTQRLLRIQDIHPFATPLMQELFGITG
Procedure: The TR-FRET PXR LBD ligand binding assay measures binding of PXR ligands by competition with a fluorescently labeled ligand (BODIPY FL vindoline) (Supplementary Figure S3) and was performed as previously described with minor modifications ([24]). […] BODIPY FL vindoline (15 μl/well, 133.3 nM in assay buffer) was dispensed into 384-well low-volume black assay plates. An Echo 650 Acoustic Liquid Handler then dispensed 60 nl/well of compound stocks or DMSO.

Cc1sc2c(c1C)C(c1ccc(Cl)cc1)=N[C@@H](CC(=O)OC(C)(C)C)c1nnc(C)n1-2 [JQ1, (+)-JQ1]
PGK promoter-driven luciferase expression (PGK promoter): not positively modulated | CYP3A4 substrate (CYP3A4): is a CYP3A4 substrate | cytotoxicity (cell viability) (HepG2 cells): exhibited cytotoxicity at the concentrations required to activate the CYP3A4-luciferase reporter | PXR RNA expression (PXR): greatly reduced PXR RNA | activation of CYP3A4-luciferase reporter with PXR expressed from a PGK promoter (human PXR; HepG2, 24 h, PGK-driven PXR): retained activation of the CYP3A4-luciferase reporter | activation of PXR-responsive CYP3A4-luciferase reporter (human PXR; human): activated the CYP3A4-luciferase reporter with potency comparable to that of the prototypical PXR agonist rifampicin (Figure 2A) but with slightly reduced efficacy | binding to purified PXR LBD (binding potency) (PXR LBD): comparable to rifampicin in binding potencies; also recorded: JQ1 > birabresib > CPI-203
